{
  "source": "patent US8563254B2",
  "about": "“Biomarkers of tumor pharmacodynamic response” (Novartis AG, priority 2009, dated 2013)",
  "key": {"[1]": {"test_system": "GTL-16 tumor-bearing mice", "test": "Hsp70 expression in GTL-16 xenograft tumors (Western blot, IHC)", "type": "in vivo", "details": "GTL-16 tumors, single 75 mg/kg dose i.v.", "experimental": "(§1) The in vivo study was carried out in strict accordance with Swiss law for animal protection and was approved by the Swiss Cantonal Veterinary Office of Basel-Stadt. GTL-16 (4×10^6) and A375 cells (5×10^6) were inoculated subcutaneously in the right flank in 200 μl Hanks' balanced salt solution (HBSS) or PBS, respectively. Invasive procedures were performed under Forene anesthesia. All experiments were performed in female Harlan HsdNpa: Athymic Nude-nu mice (Laboratory Animal Services, Novartis Pharma AG, Basel). The animals were kept under optimized hygienic conditions with 12 hr dark, 12 hr light conditions. The animals were fed food and water ad libitum. A single 75 mg/kg and 50 mg/kg dose of Hsp90 inhibitor, NVP-AUY922 was administered to the GTL-16 and A375 tumor-bearing mice, when tumors had reached a mean volume of 200 mm^3-500 mm^3 in size. Mice in the control group were injected with the vehicle (D5W). Serum was isolated and tumors dissected over the time course 0-168 hr. Tumors were cut in two halves. One half was paraffin embedded and the other snap frozen, and stored at −80° C.\nTotal protein lysates were prepared from the GTL-16 and A375 cells with RIPA lysis buffer (Upstate, Millipore Corporation, Charlottesville, Va., USA). […] Proteins were quantified by bicinchoninic acid assay (Pierce Biotechnology, Rockford, Ill., USA) for Western blotting. […]"}, "[2]": {"test_system": "tumor-bearing mice", "test": "Serum IL-8 in tumor-bearing mice, summary of both models", "type": "in vivo", "details": "single dose", "experimental": "as §1, with “Serum was isolated and tumors dissected over the time course 0-168 hr. Tumors were cut in two halves. One half was paraffin embedded and the other snap frozen, and stored at −80° C.” left out\nHuman IL-8 levels in cell culture supernatants treated with NVP-AUY922 were initially assessed as part of a multiplexed bead-based cytokine panel (hu 27-plex panel I, Bio-rad Laboratories, Hercules, Calif., USA) with a BioPlex Suspension Array System (Bio-rad). Human IL-8 and mouse KC levels in serum derived from GTL-16 and A375 tumor-bearing mice treated with NVP-AUY922 were measured by single-plex cytokine bead-based assay (Milliplex, Millipore, Billerica, Mass., USA). […]"}, "[3]": {"test_system": "GTL-16 cells", "test": "Western blot of nuclear protein fractions, GTL-16", "type": "cell-based, human", "details": "GTL-16, 0.3 μM, 16 hr and 24 hr, normalized to total protein", "experimental": "Total protein lysates were prepared from the GTL-16 and A375 cells with RIPA lysis buffer (Upstate, Millipore Corporation, Charlottesville, Va., USA). Cells were washed with PBS and 500 ul of ice-cold RIPA buffer, containing protease inhibitor cocktail tablet (Roche Diagnostic GmbH, Mannheim, Germany) and phosphatase inhibitors (Sigma-Aldrich, Inc., St. Louis, Mo., USA), was added to each plate on ice. After 15 min the cells were scrapped from the plate surface and spun at 16000 RPM for 10 min at 4° C. The supernatant was collected and frozen at −80° C. Nuclear protein fractions were prepared by the NE-PER nuclear and cytoplasmic extraction kit (Pierce Biotechnology, Rockford, Ill., USA). Proteins were quantified by bicinchoninic acid assay (Pierce Biotechnology, Rockford, Ill., USA) for Western blotting.\nPrimary antibodies specific for NFκB p65, cREL, p-ERK1/2, p-c-jun, ERK1 and Jun were purchased from Santa Cruz Biotechnology (Santa Cruz Biotechnology, Inc., Santa Cruz, Calif., USA) with the exception of Hsp70 and TBP (nuclear loading control), which were obtained from StressGen (StressGen, Assay Designs, Inc., Aim Arbor, Mich., USA) and Abcam (Abcam Inc., Cambridge, Mass., USA), respectively. […]"}},
  "data": [
    {"compound": "CCNC(=O)c1noc(-c2cc(C(C)C)c(O)cc2O)c1-c1ccc(CN2CCOCC2)cc1", "note": "[NVP-AUY922, 5-(2,4-Dihydroxy-5-isopropyl-phenyl)-4-(4-morhpolin-4-ylmethyl-phenyl)-isoxazole-3-carboxylic acid ethylamide]", "values": [
      {"measurement": "earliest time post-treatment at which Hsp70 is induced in tumor", "setting": "[1]", "value": 6, "unit": "h"},
      {"measurement": "stable Hsp70 induction in tumor up to", "setting": "[1]", "value": 48, "unit": "h"},
      {"measurement": "transient decrease in serum IL-8 levels", "setting": "[2]", "value": "40-70%"},
      {"measurement": "change in nuclear NFκB p65 levels", "setting": "[3]", "value": "−26", "unit": "%"},
      {"measurement": "decrease in nuclear phospho-c-Jun levels", "setting": "[3]", "value": "~83", "unit": "%"}
    ]}
  ]
}
